In patent US4892963A, “N-phenyl amide compounds” (Lilly Industries Limited, priority 1986, dated 1990) one finds inhibition and cyclooxygenase inhibiting properties data, which are given here for four molecules.

The test system of one assay is rat spleen cells. Put plainly: concanavalin A response of rat spleen cells (tritiated thymidine uptake). In kind it is cell-based. Conditions: dosage level of 10 micromolar, concanavalin A 3 μg/ml, 2×10^5 cells per well. The protocol: The concanavalin A response of rat spleen cells was used as a primary in vitro assay to determine the activity of the compounds of the invention. Many methods for the determination of concanavalin A response are described in the literature. The method employed was similar to that described by Lacombe P. et al, FEBS 3048 191, 227-230. This method was altered insofar as Hepes was excluded, 2×10^5 cells were used per culture well, and concanavalin A employed at 3 μg/ml. 2-Mercaptoethanol was a requirement (2×10M^-5 ) and 0.1 μCi of tritiated thymidine was added 4 hours before cell harvesting.

In a further assay the test system is cyclooxygenase. Briefly: cyclooxygenase inhibition test of Harvey and Osborn. An excerpt: Other members of the series inhibit 5-lipoxygenase product formation as measured in this test, and are thus indicated for the therapeutic treatment of diseases in which leukotrienes are implicated. These include immediate hypersensitivity diseases, allergic reactions of the pulmonary system, for example, in lung disorders such as extrinsic asthma and industrial asthmas and in other inflammatory disorders associated with acute or chronic infectious diseases as allergic skin diseases, ectopic and atopic eczemas, psoriasis, contact hypersensitivity and angioneurotic oedema, bronchitis, cystic fibrosis and rheumatic fever. Furthermore, owing to their inhibition of leukotriene formation, the compounds have potential activity against a wide range of inflammatory diseases, and are also indicated for use in cancer treatment.

As to `CC(O)=C(C#N)C(=O)Nc1ccc(C(C)(C)C)cc1` [Example 1, 2-Cyano-N-[4-(1,1-dimethylethyl)phenyl]-3-hydroxybut-2-enamide], in the assay with rat spleen cells, the inhibition (in general, the share of the control response that was lost under treatment) at 10 µM was greater than 50%. The cyclooxygenase inhibiting properties result in the assay with cyclooxygenase is given as “little or no cyclooxygenase inhibiting properties”. In the case of `Cc1oncc1C(=O)Nc1ccc(C(C)(C)C)cc1` [Example 3, N-[4-(1,1-Dimethylethyl)phenyl]-5-methylisoxazol-4-yl-carboxamide], the inhibition at 10 µM with rat spleen cells was greater than 50%. The molecule `CCC(C)(C)c1ccc(NC(=O)C(C#N)=C(C)O)cc1` [Example 4, 2-Cyano-N-[4-(1,1-dimethylpropyl)phenyl]-3-hydroxybut-2-enamide] had an inhibition at 10 µM with rat spleen cells greater than 50%. Take `CC(O)=C(C#N)C(=O)N(C)c1ccc(C(C)(C)C)cc1` [Example 2, 2-Cyano-N-[4-(1,1-dimethylethyl)phenyl]-3-hydroxy-N-methylbut-2-enamide]: the cyclooxygenase inhibiting properties result in the assay with cyclooxygenase was “little or no cyclooxygenase inhibiting properties”.
